Experimental data reported in patent US20200262813A1, “1,5,7-TRISUBSTITUTED ISOQUINOLINE DERIVATIVES, PREPARATION THEREOF, AND USE THEREOF IN MEDICINES” (SHANGHAI HAIYAN PHARMACEUTICAL TECHNOLOGY CO., LTD., priority 2016, published 2020).
Like-named read-outs stand apart in the source and are kept apart here.

Assays:
[1] = target: Recombinant PRC2 (EZH2-Y641F) (Homo sapiens, UniProt Q15910, Y641F); assay: In vitro methyltransferase activity test (LANCE Ultra); settings: LANCE Ultra detection, 3 hours reaction;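 further: compounds tested as an 8-point threefold dilution series, fluorescence read after 1 h detection step at room temperature, IC50 derived from a four-parameter curve fit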
Recombinant PRC2 (EZH2-Y641F), sequence (Q15910 whole entry Y641F): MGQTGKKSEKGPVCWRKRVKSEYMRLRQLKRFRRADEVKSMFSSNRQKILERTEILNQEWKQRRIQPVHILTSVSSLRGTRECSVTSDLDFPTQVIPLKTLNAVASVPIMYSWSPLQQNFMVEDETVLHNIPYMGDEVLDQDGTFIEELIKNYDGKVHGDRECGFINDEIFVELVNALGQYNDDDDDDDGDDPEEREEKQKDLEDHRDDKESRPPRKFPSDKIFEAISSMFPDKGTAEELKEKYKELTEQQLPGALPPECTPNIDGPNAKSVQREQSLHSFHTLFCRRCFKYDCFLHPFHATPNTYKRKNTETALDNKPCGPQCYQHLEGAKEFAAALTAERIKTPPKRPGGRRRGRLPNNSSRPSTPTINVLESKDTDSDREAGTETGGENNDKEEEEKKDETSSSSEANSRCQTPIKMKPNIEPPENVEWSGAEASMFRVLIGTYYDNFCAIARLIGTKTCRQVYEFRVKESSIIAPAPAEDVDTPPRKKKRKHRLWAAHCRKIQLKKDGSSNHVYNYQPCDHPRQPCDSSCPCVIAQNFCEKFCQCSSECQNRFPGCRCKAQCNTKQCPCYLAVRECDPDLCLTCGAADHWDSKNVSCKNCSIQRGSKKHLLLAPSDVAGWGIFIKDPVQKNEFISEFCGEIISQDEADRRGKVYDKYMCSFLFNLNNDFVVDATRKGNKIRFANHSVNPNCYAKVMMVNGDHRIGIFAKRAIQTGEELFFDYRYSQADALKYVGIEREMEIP
Recombinant PRC2 (EZH2-Y641F), sequence (O75530 whole entry partner): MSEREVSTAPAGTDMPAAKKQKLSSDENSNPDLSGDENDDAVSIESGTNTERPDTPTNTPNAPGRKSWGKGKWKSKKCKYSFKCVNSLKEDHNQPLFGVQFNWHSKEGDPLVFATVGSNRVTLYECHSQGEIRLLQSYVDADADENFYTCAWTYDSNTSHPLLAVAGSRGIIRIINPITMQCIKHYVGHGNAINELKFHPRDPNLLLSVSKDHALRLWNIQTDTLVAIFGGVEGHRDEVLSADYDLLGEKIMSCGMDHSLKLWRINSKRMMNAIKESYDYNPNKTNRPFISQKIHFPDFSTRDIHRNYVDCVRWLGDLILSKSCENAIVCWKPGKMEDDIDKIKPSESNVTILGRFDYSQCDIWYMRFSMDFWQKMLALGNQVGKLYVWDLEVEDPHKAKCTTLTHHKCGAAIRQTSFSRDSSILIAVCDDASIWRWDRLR
Recombinant PRC2 (EZH2-Y641F), sequence (Q15022 whole entry partner): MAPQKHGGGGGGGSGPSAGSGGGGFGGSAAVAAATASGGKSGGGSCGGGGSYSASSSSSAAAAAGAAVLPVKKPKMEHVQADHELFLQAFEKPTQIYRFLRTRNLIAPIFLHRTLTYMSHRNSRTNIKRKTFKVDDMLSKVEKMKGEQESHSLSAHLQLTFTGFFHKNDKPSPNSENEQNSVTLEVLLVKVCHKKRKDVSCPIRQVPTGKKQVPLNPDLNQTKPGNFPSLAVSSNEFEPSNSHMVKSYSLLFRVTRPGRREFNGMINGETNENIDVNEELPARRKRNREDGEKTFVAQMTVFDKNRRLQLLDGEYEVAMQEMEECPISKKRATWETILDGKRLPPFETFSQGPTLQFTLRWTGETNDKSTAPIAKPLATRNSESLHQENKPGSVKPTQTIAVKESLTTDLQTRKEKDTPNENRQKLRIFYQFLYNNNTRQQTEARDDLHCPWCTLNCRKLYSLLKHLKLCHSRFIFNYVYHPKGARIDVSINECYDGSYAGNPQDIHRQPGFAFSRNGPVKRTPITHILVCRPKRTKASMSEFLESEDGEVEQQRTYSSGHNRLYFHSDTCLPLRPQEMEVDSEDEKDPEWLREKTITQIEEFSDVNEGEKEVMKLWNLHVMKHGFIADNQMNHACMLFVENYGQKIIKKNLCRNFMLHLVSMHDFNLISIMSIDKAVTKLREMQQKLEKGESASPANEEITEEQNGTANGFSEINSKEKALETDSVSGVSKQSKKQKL
Recombinant PRC2 (EZH2-Y641F), sequence (Q09028 whole entry partner): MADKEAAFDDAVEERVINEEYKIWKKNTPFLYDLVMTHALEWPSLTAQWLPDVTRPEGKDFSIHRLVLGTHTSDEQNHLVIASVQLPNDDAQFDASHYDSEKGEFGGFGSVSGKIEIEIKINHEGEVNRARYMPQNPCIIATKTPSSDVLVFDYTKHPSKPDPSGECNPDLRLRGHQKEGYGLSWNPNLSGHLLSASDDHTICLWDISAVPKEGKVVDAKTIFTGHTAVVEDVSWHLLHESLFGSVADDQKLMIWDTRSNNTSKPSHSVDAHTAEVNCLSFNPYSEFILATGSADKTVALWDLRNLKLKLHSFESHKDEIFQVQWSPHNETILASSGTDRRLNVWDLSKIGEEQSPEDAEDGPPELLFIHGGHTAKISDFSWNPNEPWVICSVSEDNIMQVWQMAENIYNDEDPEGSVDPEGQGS
Recombinant PRC2 (EZH2-Y641F), sequence (Q6ZN18 whole entry partner): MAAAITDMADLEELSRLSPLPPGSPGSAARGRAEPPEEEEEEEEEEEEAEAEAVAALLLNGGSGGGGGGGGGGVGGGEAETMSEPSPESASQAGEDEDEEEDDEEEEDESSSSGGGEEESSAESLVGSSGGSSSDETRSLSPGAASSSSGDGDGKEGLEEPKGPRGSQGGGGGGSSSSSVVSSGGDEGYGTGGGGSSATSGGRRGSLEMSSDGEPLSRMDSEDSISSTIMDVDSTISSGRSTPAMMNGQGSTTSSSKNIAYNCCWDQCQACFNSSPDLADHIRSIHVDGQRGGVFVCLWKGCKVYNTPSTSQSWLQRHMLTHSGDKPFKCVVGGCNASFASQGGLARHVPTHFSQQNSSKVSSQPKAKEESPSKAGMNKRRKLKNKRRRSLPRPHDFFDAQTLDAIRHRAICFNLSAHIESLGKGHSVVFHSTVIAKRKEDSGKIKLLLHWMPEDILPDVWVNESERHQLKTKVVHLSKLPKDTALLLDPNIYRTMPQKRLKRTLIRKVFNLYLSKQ
Procedure: In Vitro Methyltransferase Activity Test
Recombinant PRC2 (EZH2-Y641F) was purchased from Active motif, S-adenosyl-methionine (SAM) and Poly-L-lysine (PLL) were purchased from Sigma-Aldrich, H3(1-50)K27mel polypeptide was purchased from Cisbio. LANCEUltra system (Perkinelmer) was used for detection. In the enzyme activity test, a compound to be tested was 1:3 diluted for 8 gradient points, added into a reaction plate, and then added 100 ng recombinant enzyme. And then a buffer [20 mM Tris pH8.5, 2 mM MgCl2, 0.01% Tween-20, 1 mM TCEP] containing 2.5 M SAM/250 nM H3(1-50)K27mel premixture was added to conduct an enzyme reaction at room tempreture. After reacted for 3 hours, a dection solution containing premixed PLL, detection antibody and Ulight was added, reacted for 1 h at RT, then fluorescence was read on Tecan infinite pro. IC50s were calculated by four-factor model fitting in a XLfit software.

Pfeiffer cells = assay: Cell proliferation test (cell counting kit-8, 6 days); assay type: cell-based; settings: 6 days' growth
Procedure: Cells were harvested by centrifuge and densities were determined using a CounterStar cell counter. Appropriate number of cells were plated in a 96-well culture plate and incubated overnight. Compounds to be tested were 1:3 diluted for 8 gradient points and added into corresponding wells. After 6 days' growth, cell counting kit-8 (Dojindo) was used to detect cell viability and absorbance values were read on Tecan infinite pro.

[2] = EZH2 Y641F IC50, Recombinant PRC2 (EZH2-Y641F)

Structure (SMILES)	IC50 [1, 2] [nM]	IC50 (Pfeiffer cells; Homo sapiens, Pfeiffer, 144 h) [nM]	IC50 ([1]; read-out: EZH2 Y641F IC50, Recombinant PRC2 (EZH2-Y641F)) [nM]	IC50 (Pfeiffer cells) [nM]
CCN(c1cc(-c2ccncc2)cc2c(NCc3c(C)cc(C)[nH]c3=O)nccc12)[C@H]1CC[C@H](N(C)C)CC1 [Compound Z-73]	150	593	–	–
CCN(c1cc(-c2ccc(N3CCN(C)CC3)nc2)cc2c(NCc3c(C)cc(C)[nH]c3=O)nccc12)C1CCN(C2CC2)CC1 [Compound Z-74]	326	799	–	–
CCN(c1cc(-c2cccnc2)cc2c(NCc3c(C)cc(C)[nH]c3=O)nccc12)C1CCC(O)CC1 (stereo not drawn) [Compound Z-85]	269	521	–	–
CCN(c1cc(-c2ccc(N3CCN(C)CC3)nc2)cc2c(NCc3c(C)cc(C)[nH]c3=O)nccc12)C1CCC(O)CC1 (stereo not drawn) [Compound Z-86]	128	483	–	–
CCN(c1cc(-c2cnc(N3CCN(C)CC3)nc2)cc2c(NCc3c(C)cc(C)[nH]c3=O)nccc12)C1CCC(O)CC1 (stereo not drawn) [Compound Z-89]	43	401	–	–
CCN(c1cc(C2=CCN(C)CC2)cc2c(NCc3c(C)cc(C)[nH]c3=O)nccc12)C1CCC(O)CC1 (stereo not drawn) [Compound Z-91]	75	291	–	–
CCN(c1cc(-c2ccc(C3CC3)nc2)cc2c(NCc3c(C)cc(C)[nH]c3=O)nccc12)C1CCC(N(C)C)CC1 (stereo not drawn) [Compound Z-93]	74	279	–	–
CCN(c1cc(-c2ccc(N3CCN(C)CC3)nc2)cc2c(NCc3c(C)cc(C)[nH]c3=O)nccc12)C1CCC(F)(F)CC1 [Compound Z-94]	159	384	–	–
CCN(CCN(C)C)c1cc(-c2ccc(N3CCN(C)CC3)nc2)cc2c(NCc3c(C)cc(C)[nH]c3=O)nccc12 [Compound Z-97]	283	326	–	–
CCN(c1cc(-c2cnc(N3CCOCC3)nc2)cc2c(NCc3c(C)cc(C)[nH]c3=O)nccc12)C1CCC(O)CC1 (stereo not drawn) [Compound Z-99]	251	201	–	–
CCN(c1cc(-c2ccc(CN3CCN(C)CC3)nc2)cc2c(NCc3c(C)cc(C)[nH]c3=O)nccc12)C1CCC(F)(F)CC1 [Compound Z-105]	197	988	–	–
CCN(c1cc(-c2cnc(N3CCOCC3)nc2)cc2c(NCc3c(C)cc(C)[nH]c3=O)nccc12)[C@H]1CC[C@@H](O)CC1 [Compound Z-108]	–	–	283	612
Cc1cc(C)c(CNc2nccc3c(N(C)C4CCC(N(C)C)CC4)cc(-c4ccc(N5CCN(C)CC5)nc4)cc23)c(=O)[nH]1 (stereo not drawn) [Compound Z-111]	37	478	–	–
CCN(c1cc(-c2ccc(CN3CCN(C(C)C)CC3)nc2)cc2c(NCc3c(C)cc(C)[nH]c3=O)nccc12)C1CCOCC1 [Compound Z-112]	96	595	–	–
CCN(c1cc(-c2ccc(CN3CCOCC3)nc2)cc2c(NCc3c(C)cc(C)[nH]c3=O)nccc12)C1CCOCC1 [Compound Z-113]	153	713	–	–
CCN(c1cc(-c2ccc(CN3CCN(C)C(=O)C3)nc2)cc2c(NCc3c(C)cc(C)[nH]c3=O)nccc12)C1CCOCC1 [Compound Z-114]	84	788	–	–
CCN(c1cc(-c2cnc(CN3CCN(C)CC3)nc2)cc2c(NCc3c(C)cc(C)[nH]c3=O)nccc12)C1CCOCC1 [Compound Z-115]	47	706	–	–
CCN(c1cc(-c2cnc(CN3CCN(C)CC3)c(F)c2)cc2c(NCc3c(C)cc(C)[nH]c3=O)nccc12)C1CCOCC1 [Compound Z-116]	41	525	–	–
CCN(c1cc(-c2ccc(CN3CCN(C)CC3)nc2)cc2c(NCc3c(C)cc(C)[nH]c3=O)nccc12)C1CCOCC1 [Compound Z-118]	85	973	–	–
CCN(c1cc(-c2cnc(CN3CCOCC3)nc2)cc2c(NCc3c(C)cc(C)[nH]c3=O)nccc12)C1CCOCC1 [Compound Z-121]	474	646	–	–
CCN(c1cc(-c2cnc(CN3CCOCC3)c(F)c2)cc2c(NCc3c(C)cc(C)[nH]c3=O)nccc12)C1CCOCC1 [Compound Z-122]	439	833	–	–
